In patent US20180035670A1, “ACTIVE COMPOUND COMBINATIONS” (BAYER CROPSCIENCE AKTIENGESELLSCHAFT, priority 2015, published 2018):
Several values for one entry are separate records, joined by “and”; a condition that tells them apart may be missing. Equal entries are not always repeated. Where two headings read alike, the source gives them in different places.

What was measured:
[1] = test system: Phakopsora pachyrhizi; assay: in vivo preventive test on Phakopsora test (soybeans); conditions: 7 days after inoculation; for pest or weed control at 0.5 ppm: 0.5 ppm a.i.; for pest or weed control at 1 ppm: 1 ppm a.i.; for pest or weed control at 0.25 ppm: 0.25 ppm a.i.
[2] = test system: Venturia inaequalis; assay: in vivo preventive test on Venturia test (apples); conditions: for pest or weed control at 0.25 ppm: read-out: Efficacy in % found, 0.25 ppm a.i., apples, 10 days after inoculation; for pest or weed control at 0.5 ppm: read-out: Efficacy in % found, 0.5 ppm a.i., apples, 10 days after inoculation; for pest or weed control at 1 ppm: read-out: Efficacy in % found, 1 ppm a.i., apples, 10 days after inoculation; for pest or weed control at 10 ppm: read-out: Efficacy in % found, 10 ppm a.i., apples, 10 days after inoculation; for pest or weed control at 2 ppm: read-out: Efficacy in % found, 2 ppm a.i., apples, 10 days after inoculation; for Efficacy in % found: apples, 10 days after inoculation
Method: After the spray coating has dried on, the plants are inoculated with an aqueous conidia suspension of the causal agent of apple scab (Venturia inaequalis) and then remain for 1 day in an incubation cabinet at approximately 20° C. and a relative atmospheric humidity of 100%. The plants are then placed in a greenhouse at approximately 21° C. and a relative atmospheric humidity of approximately 90%.
The test is evaluated 10 days after the inoculation.

[3] = test system: Alternaria solani; assay: in vivo preventive test on Alternaria test (tomatoes); conditions: 3 days after inoculation
Method: After the spray coating has dried on, the plants are inoculated with an aqueous spore suspension of Alternaria solani. The plants are then placed in an incubation cabinet at approximately 20° C. and a relative atmospheric humidity of 100%.
The test is evaluated 3 days after the inoculation.

[4] = test system: Sphaerotheca fuliginea; assay: in vivo preventive test on Sphaerotheca test (cucumbers); conditions: 7 days after inoculation
Method: After the spray coating has dried on, the plants are inoculated with an aqueous spore suspension of Sphaerotheca fuliginea. The plants are then placed in a greenhouse at approximately 23° C. and a relative atmospheric humidity of approximately 70%.
The test is evaluated 7 days after the inoculation.

[5] = test system: Botrytis cinerea; assay: in vivo preventive test on Botrytis test (beans); conditions: 2 days after inoculation
Method: After the spray coating has dried on, 2 small pieces of agar covered with growth of Botrytis cinerea are placed on each leaf.
The inoculated plants are placed in a darkened chamber at 20° C. and a relative atmospheric humidity of 100%.
2 days after the inoculation, the size of the lesions on the leaves is evaluated.

[6] = test system: Phytophthora infestans; format: in vivo; conditions: tomatoes, 3 days after inoculation
[7] = Phakopsora pachyrhizi, 168 h, read-out: Efficacy in % found

| Compound | pest or weed control at 0.5 ppm [1, 7] [%] | pest or weed control at 1 ppm [1, 7] [%] | pest or weed control at 0.25 ppm ([2]; Venturia inaequalis, 240 h) [%] | pest or weed control at 0.5 ppm ([2]; Venturia inaequalis, 240 h) [%] | Efficacy in % found ([3]; 0.25 ppm a.i.) [%] | Efficacy in % found ([3]; 0.5 ppm a.i.) | Efficacy in % found ([3]; 1 ppm a.i.) | pest or weed control at 0.25 ppm [1, 7] [%] | Efficacy in % found ([5]; 0.5 ppm a.i.) [%] | Efficacy in % found ([5]; 1 ppm a.i.) | Efficacy in % found ([6]; 10 ppm a.i.) [%] | Efficacy in % found ([6]; 20 ppm a.i.) [%] | Efficacy in % found ([5]; 0.25 ppm a.i.) [%] | Efficacy in % found ([3]; 2 ppm a.i.) [%] | further results |
| --- | --- | --- | --- | --- | --- | --- | --- | --- | --- | --- | --- | --- | --- | --- | --- |
| CC(O)(Cn1cncn1)c1ccc(Oc2ccc(Cl)cc2)cc1C(F)(F)F (centres unmarked) [1.084, 2-[4-(4-chlorophenoxy)-2-(trifluoromethyl)phenyl]-1-(1H-1,2,4-triazol-1-yl)propan-2-ol] | 8 | 0 | 11 | 34 | 8 | 8% and 0% | 15% | – | – | – | – | – | – | – | pest or weed control at 1 ppm ([2]; Venturia inaequalis, 240 h): 31%; Efficacy in % found ([4]; 0.5 ppm a.i.): 0% |
| O[C@@H](c1cccnc1)c1c(-c2ccc(Cl)cc2F)noc1-c1ccc(F)cc1F [1.104, (S)-[3-(4-chloro-2-fluorophenyl)-5-(2,4-difluorophenyl)-1,2-oxazol-4-yl](pyridin-3-yl)methanol] | – | 0 | 0 | 11 | 0 | 0% | 0% | 0 | 15 | 26% | – | – | – | – | pest or weed control at 1 ppm ([2]; Venturia inaequalis, 240 h): 19%; Efficacy in % found ([4]; 0.25 ppm a.i.): 0%; Efficacy in % found ([4]; 1 ppm a.i.): 0% |
| COC(=O)Nc1nc2ccccc2[nH]1 [4.002, carbendazim, reference compound] | – | – | – | – | – | – | – | – | – | – | – | – | – | – | pest or weed control at 1.25 ppm ([1]; Phakopsora pachyrhizi, 168 h, 1.25 ppm a.i., read-out: Efficacy in % found): 0%; pest or weed control at 2.5 ppm ([1]; Phakopsora pachyrhizi, 168 h, 2.5 ppm a.i., read-out: Efficacy in % found): 0%; Efficacy in % found ([5]; 5 ppm a.i.): 0%; pest or weed control at 5 ppm ([2]; Venturia inaequalis, 240 h, read-out: Efficacy in % found, 5 ppm a.i., apples, 10 days after inoculation): 8%; pest or weed control at 10 ppm ([2]; Venturia inaequalis, 240 h): 21%; Efficacy in % found ([3]; 10 ppm a.i.): 0% |
| N#Cc1c(Cl)c(Cl)c(Cl)c(C#N)c1Cl [5.004, chlorothalonil, reference compound] | – | – | – | – | – | – | – | – | – | – | – | – | – | – | pest or weed control at 6.25 ppm ([1]; Phakopsora pachyrhizi, 168 h, 6.25 ppm a.i., read-out: Efficacy in % found): 18%; pest or weed control at 12.5 ppm ([1]; Phakopsora pachyrhizi, 168 h, 12.5 ppm a.i., read-out: Efficacy in % found): 0%; pest or weed control at 25 ppm ([2]; Venturia inaequalis, 240 h, read-out: Efficacy in % found, 25 ppm a.i., apples, 10 days after inoculation): 36%; Efficacy in % found ([3]; 50 ppm a.i.): 0% |
| O=[N+]([O-])c1cc(C(F)(F)F)c(Cl)c([N+](=O)[O-])c1Nc1ncc(C(F)(F)F)cc1Cl [14.004, fluazinam, reference compound] | – | – | – | – | – | – | – | – | – | – | 45 | 28 | – | – | pest or weed control at 5 ppm ([1]; Phakopsora pachyrhizi, 168 h, 5 ppm a.i., read-out: Efficacy in % found): 0%; Efficacy in % found ([5]; 5 ppm a.i.): 63%; pest or weed control at 10 ppm ([2]; Venturia inaequalis, 240 h): 0%; Efficacy in % found ([3]; 10 ppm a.i.): 0% |
| CC1(C)N=C(c2cnc3ccccc3c2)c2ccccc2C1(F)F [15.090, 3-(4,4-difluoro-3,3-dimethyl-3,4-dihydroisoquinolin-1-yl)quinoline] | 0 | 0 | 19 | – | – | – | – | 0 | 0 | 28% | – | – | 0 | – | – |
| CCC1CC(C)(C)c2cccc(NC(=O)c3cccnc3C(F)F)c21 (centres unmarked) [(I-3), 2-(difluoromethyl)-N-(3-ethyl-1,1-dimethyl-2,3-dihydro-1H-inden-4-yl)nicotinamide] | 65 | 84 | 4 | 18 | 15 | 23% | 40% | – | – | 15% | – | 4 | – | 35 | Efficacy in % found ([6]; 5 ppm a.i.): 28%; Efficacy in % found ([5]; 2 ppm a.i.): 23%; pest or weed control at 2 ppm ([2]; Venturia inaequalis, 240 h): 11%; Efficacy in % found ([4]; 0.5 ppm a.i.): 0%; Efficacy in % found ([4]; 1 ppm a.i.): 0% |
| CC[C@@H]1CC(C)(C)c2cccc(NC(=O)c3cccnc3C(F)F)c21 [(I-4), 2-(difluoromethyl)-N-[(3R)-3-ethyl-1,1-dimethyl-2,3-dihydro-1H-inden-4-yl]nicotinamide] | 85 | – | 15 | – | 8 | 40% | 30% and 55% | 65 | 8 | – | 10 | 7 | 0 | 35 | – |
| CCCC1CC(C)(C)c2cccc(NC(=O)c3cccnc3C(F)F)c21 (centres unmarked) [(I-5), 2-(difluoromethyl)-N-(1,1-dimethyl-3-propyl-2,3-dihydro-1H-inden-4-yl)nicotinamide] | – | – | 8 | 0 | – | – | 0% | 60 | 0 | – | 0 | 4 | 0 | 8 | Efficacy in % found ([6]; 5 ppm a.i.): 17%; pest or weed control at 2 ppm ([2]; Venturia inaequalis, 240 h): 0% |
| CCC[C@@H]1CC(C)(C)c2cccc(NC(=O)c3cccnc3C(F)F)c21 [(I-6), 2-(difluoromethyl)-N-[(3R)-1,1-dimethyl-3-propyl-2,3-dihydro-1H-inden-4-yl]nicotinamide] | – | – | – | 0 | 0 | 0% | 8% and 15% | 75 | 0 | 19% and 11% | 14 | 8 | 15 | 51 | Efficacy in % found ([6]; 5 ppm a.i.): 21%; pest or weed control at 2 ppm ([2]; Venturia inaequalis, 240 h): 15% |
| mancozeb [5.023, reference compound] | – | – | – | – | – | – | – | – | – | – | – | – | – | – | Efficacy in % found ([1]; 6.25 ppm a.i.): 24%; Efficacy in % found ([1]; 12.5 ppm a.i.): 41%; Efficacy in % found ([5]; 25 ppm a.i.): 0%; Efficacy in % found ([5]; 50 ppm a.i.): 0%; Efficacy in % found ([2]; 25 ppm a.i.): 31%; Efficacy in % found ([2]; 50 ppm a.i.): 34%; Efficacy in % found ([3]; 50 ppm a.i.): 0% |
| propineb [5.029, reference compound] | – | – | – | – | – | – | – | – | – | – | – | – | – | – | Efficacy in % found ([1]; 6.25 ppm a.i.): 0%; Efficacy in % found ([1]; 12.5 ppm a.i.): 0%; Efficacy in % found ([5]; 25 ppm a.i.): 0%; Efficacy in % found ([2]; 12.5 ppm a.i.): 11%; Efficacy in % found ([2]; 25 ppm a.i.): 94%; Efficacy in % found ([3]; 50 ppm a.i.): 0% |
